# Measurements from patent US10882856B2 (BeiGene, Ltd., priority 2017, dated 2021).
# Like-named read-outs stand apart in the source and are kept apart here.
# Columns and labels:
# [1] = molecular target: T1, cellular IDO1 in HeLa cells (Homo sapiens, UniProt P14902); assay: HeLa cell-based IDO1 Kyn (kynurenine) production assay; conditions: IDO1 induced by IFN-γ, 48 hours, read-out: cell-based EC50 value (IDO1 expressed Hela cells)
# T1 construct: endogenous in cells; host or cells: HeLa (ATCC), induced with human recombinant IFN-γ
# Method: HeLa Cell-Based IDO1 Kyn (Kynurenine) Production Assay:
# The inhibitory activity of IDO1 inhibitors is determined by using a colorimetric reaction to measure Kyn generated from L-Trp (L-Tryptophon) oxidation by cellular IDO1 in HeLa cells after induction of IDO1 expression by IFN-γ.
# Hela cells were obtained from the American Type Culture Collection and recovered in 10% FBS-containing phenol red-free DMEM medium. Cells were plated onto a 96-well plate (100 μl/well) at 8000 cells per well and kept at 37° C. in a humidified incubator supplied with 5% CO2 4 hours later, Human recombinant IFN-γ (8901SC, CST) was added to cells (final concentration 100 ng/mL) to stimulate endogenous IDO11. Compounds at different concentrations diluted in dimethylsulfoxide (DMSO) were added simultaneously with IFN-γ and 0.4 mM L-Trp. Cells were kept at 37° C. in a humidified incubator supplied with 5% CO2. After 48 hours of incubation, 100 μl supernatant from each well was removed to a new plate. The protein in the medium was precipitated with the addition of 8 μl 6N trichloroacetic acid. The plate was incubated at 60° C. for 30 minutes and then centrifugation at 2500 rpm for 10 minutes to remove sediments. […] The absorbance at 480 nm wavelength derived from Kyn was measured using a PHERAstar FS plate reader (BMG LABTECH). […]
# [2] = molecular target: T2, TDO2 in 293-TDO2 cells (Homo sapiens, UniProt P48775); assay: 293-TDO2 cell-based TDO2 Kyn (kynurenine) production assay
# T2 construct: expressed in transfected cells; host or cells: HEK293 (ATCC), stably transfected
# Outline: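 HEK293 cells stably transfected to express tryptophan 2,3-dioxygenase were seeded at 10000 per well in 96-well plates in phenol red-free DMEM with 10% FBS. After 4 hours, DMSO-diluted compound dilutions were added, and cells were kept 48 hours at 37 °C, 5% CO2. Supernatant was deproteinised with trichloroacetic acid, and kynurenine was measured at 480 nm after adding 2% 4-(dimethylamino)benzaldehyde. Potency came from four-parameter logistic fits in XLfit.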
# [3] = molecular target: T3, TDO (Homo sapiens, UniProt P48775); assay: TDO enzymatic assay; assay type: biochemical; conditions: read-out: Enzyme IC50 TDO
# T3 construct: His tag (C); made in house; host or cells: E. coli
# Outline: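 Recombinant C-terminally His-tagged TDO purified from E. coli (100 nM) was tested with 0.5 mM L-tryptophan (Km concentration). Otherwise the IDO1 enzymatic set-up was used: ascorbic acid, methylene blue, catalase, and potassium phosphate pH 7.5 with BSA, incubated 1.5 hours. N'-formylkynurenine absorbance was read continuously at 321 nm, and activity was taken as the slope. IC50 was calculated from remaining enzyme activity across increasing compound concentrations.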
# [4] = molecular target: T4, IDO1 (Homo sapiens, UniProt P14902); assay: IDO1 enzymatic assay; assay type: biochemical; design: His tag (N); made in house; host or cells: E. coli; conditions: read-out: Enzyme IC50 IDO1
# Outline: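 Compound was incubated with 50 nM His-tagged IDO1 from E. coli, 1.3 mM D-tryptophan, 5 mM L-ascorbic acid, methylene blue and 0.4 mg/mL catalase in 50 mM potassium phosphate pH 7.5, 0.1% BSA, at 24 °C for 1.5 hours. Activity was the slope of N'-formylkynurenine formation read continuously at 321 nm for 1 hour. IC50 was obtained from remaining activity versus compound concentration.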
# [5] = molecular target: T4, IDO1; assay: Hela cell-based IDO1 assay; conditions: Hela cells
# Outline: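 Kynurenine was measured at 480 nm in trichloroacetic acid-deproteinised supernatant after adding 2% 4-(dimethylamino)benzaldehyde. This supernatant came from HeLa cells seeded at 8000 per well in 96-well plates in phenol red-free DMEM with 10% FBS and, from 4 hours after seeding, exposed for 48 hours at 37 °C, 5% CO2 to DMSO-diluted compound dilutions, IFN-γ (final 100 ng/mL) and 0.4 mM L-Trp. The resulting data were fitted with a four-parameter logistic model in XLfit. Potency was taken from those fits.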
# [6] = molecular target: T4, IDO1; assay: IDO1 enzymatic assay; assay type: biochemical; design: His tag (N); made in house; host or cells: E. coli; conditions: recombinant IDO1, 1.3 mM D-tryptophan
# Method: Recombinant IDO1 was overexpressed and purified from E. coli cells with an N-terminal His tag. IDO1 enzymatic assay was carried out using a methodology similar to described in the literature (J. Biol. Chem. (1980), 255, 1339-1345.). The reaction mixture contains 50 nM IDO1, 1.3 mM D-tryptophan, 5 mM L-ascorbic acid, […] methylene Blue, 0.4 mg/mL catalase and compound (or DMSO) in a buffer containing 50 mM potassium phosphate pH 7.5 and 0.1% BSA. After incubation at 24′C for 1.5 hours, absorbance of the reaction mixture was continuously read at 321 nm to monitor the formation of N′-formylkynurenine by a FULOstar OMEGA plate reader (BMG LABTECH) for 1 hour. The enzymatic activity was determined by measuring the slope of the linear absorbance increase as a function of time. The IC50s are calculated based on remaining enzyme activity in the presence of increasing concentrations of compounds.
# [7] = molecular target: T5, cellular TDO2 in HEK293-TDO2 cells (Homo sapiens, UniProt P48775); assay: 293-TDO2 cell-based assay (Kyn colorimetric); conditions: 48 hours of incubation
# T5 construct: expressed in transfected cells; host or cells: HEK293 (ATCC), stably transfected
# Outline: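 HEK293 cells stably expressing TDO2 (10000/well, phenol red-free DMEM, 10% FBS) were dosed 4 h after plating and incubated 48 h at 37° C. Supernatant Kyn was measured after TCA precipitation by 4-(dimethylamino)benzaldehyde colour at 480 nm. IC50 came from four-parameter logistic fits.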
# T4 sequence (P14902 whole entry): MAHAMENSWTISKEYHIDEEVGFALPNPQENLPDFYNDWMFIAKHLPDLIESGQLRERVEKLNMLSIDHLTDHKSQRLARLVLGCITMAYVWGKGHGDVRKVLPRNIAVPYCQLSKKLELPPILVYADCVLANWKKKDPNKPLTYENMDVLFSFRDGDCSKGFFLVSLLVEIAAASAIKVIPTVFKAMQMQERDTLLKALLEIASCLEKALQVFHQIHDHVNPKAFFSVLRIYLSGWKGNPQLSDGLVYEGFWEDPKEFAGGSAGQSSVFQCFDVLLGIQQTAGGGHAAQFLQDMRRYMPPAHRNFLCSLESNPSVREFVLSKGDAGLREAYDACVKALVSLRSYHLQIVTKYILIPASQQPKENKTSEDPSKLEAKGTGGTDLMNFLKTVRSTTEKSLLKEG
# T1 sequence (P14902 whole entry): as above
# T2 sequence (P48775 whole entry): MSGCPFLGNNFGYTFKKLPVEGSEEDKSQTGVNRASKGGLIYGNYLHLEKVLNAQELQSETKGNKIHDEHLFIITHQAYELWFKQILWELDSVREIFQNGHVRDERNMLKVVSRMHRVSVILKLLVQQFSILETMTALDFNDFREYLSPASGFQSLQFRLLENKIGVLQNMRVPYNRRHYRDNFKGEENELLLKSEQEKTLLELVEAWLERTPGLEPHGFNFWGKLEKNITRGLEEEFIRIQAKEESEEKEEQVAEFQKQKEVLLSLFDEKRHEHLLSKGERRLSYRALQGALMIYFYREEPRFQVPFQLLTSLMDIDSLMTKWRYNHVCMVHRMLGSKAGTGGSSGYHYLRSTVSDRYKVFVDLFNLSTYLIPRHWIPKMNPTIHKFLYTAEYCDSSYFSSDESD
# T3 sequence (P48775 whole entry): as above
# T5 sequence (P48775 whole entry): as above
EC50 [1] [nM],EC50 [2] [nM],IC50 [3] [nM],IC50 [4] [nM],EC50 [5] [nM],IC50 [6] [nM],EC50 [7] [nM],SMILES
130,> 10000,8100,22,131,22,> 10000,"OC(c1c(C2CC2)ccc2cncn12)[C@H]1CC[C@H](c2ccc(Cl)cc2)CC1 (single isomer, unassigned) [Example D103c]"
> 10000,> 10000,,67,,67,,"OC(c1c(C2CC2)ccc2cncn12)[C@H]1CC[C@@H](c2ccc(Cl)cc2)CC1 (single isomer, unassigned) [Example D103d]"
